Experimental data published in US20240009105A1, “TETRAPEPTIDE AND COMPOSITIONS COMPRISING TETRAPEPTIDES” (THE BOOTS COMPANY PLC, priority 2020, published 2024).
Marks after values point to notes of the source that are not given here.

Test system: Fibrillin 1
Experiment: Fibrillin 1 expression in primary human dermal fibroblasts by immunofluorescence
Format: cell-based
Conditions: HDF cells, 10 ppm peptide, cultured 5 days, immunofluorescence fibre density
Protocol: The synergistic activity of the tetrapeptides of the present invention were assessed to determine the expression of dermal extracellular protein Fibrillin 1 using immunofluorescence.
Primary Human dermal fibroblast (HDFs) cells were purchased from Promo Cell and came from a donor. Cells were grown in wells of 96-well black walled, clear bottomed, plates (as purchased from Pierce, Thermo Fisher). Cells were cultured in Human Dermal Fibroblast media (PromoCell) supplemented with Basic Fibroblast Growth Factor (recombinant human), 1 ng/ml and Insulin 5 μg/mL Cells were cultured for 5 days in the presence of the tetrapeptides combination of the present invention, changing media and peptides every 48 hours, followed by immunofluorescence assessment. At the time of treatment cells were at passage 3-4. After 5 days the media was discarded, and cells fixed with methanol. […]
The antibody binding to Fibrillin 1 fibres was visualised using a Nikon Eclipse 100 microscope fluorescence setting using an excitation lens for fluorescein isothiocyanate (FITC). […] Image-J software was used to quantify the Fibrillin 1 fibre abundance and coverage in each image using a threshold of 235 measuring the fibre density.
Results are expressed as an average percentage increase in fibrillin abundance compared to untreated control.

Row | Substance | Fibrillin 1 (average percentage increase in fibrillin abundance compared to untreated control)
1 | Pal-GPKG-OH | +131%^a
2 | Pal-LSVD-OH | +185%^a
